Laboratory results published in patent US20200060276A1, “THIAZOLE COMPOUND AND HERBICIDE” (OAT Agrio Co., Ltd., priority 2017, published 2020).

How the values were obtained:
Type in all cases: in vivo
[1] = test system: Echinochloa crus-galli (L.) P. Beauv. var. formosensis Ohwi; test: Test for Herbicidal Effect in Flooding Treatment (#2), ECHDG at 2-2.5 leaf stage; conditions: for ECHDG (2-2.5L) #2 herbicidal effect (growth inhibition grade): flooding treatment at 2-2.5 leaf stage, dose 0.2 kg/ha, visual observation on day 21; for inhibition at 200 g/ha: Echinochloa crus-galli, 504 h, flooding treatment (#2), ECHDG at 2-2.5 leaf stage, dose of 0.2 kg/ha, day 21, visual observation, read-out: growth inhibition effect
Procedure, shortened: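 Flooded muddy soil was seeded with the weed, and at 2–2.5 leaf stage compound in acetone/Tween 80 water was dropped on the water surface at 0.2 kg/ha. Plants were kept in a glasshouse and scored visually on day 21 from 0 (<10% growth inhibition) to 5 (≥90% or complete withering).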

[2] = test system: Scirpus juncoides; test: Test for Herbicidal Effect in Flooding Treatment (#1), SCIJU; conditions: flooding treatment at seeding, dose 2 kg/ha, visual observation on day 21
Procedure, shortened: (§1)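 Flooded soil in cups was seeded 24 h after flooding, then treated with compound in acetone diluted with Tween 80-containing water, dropped onto the water surface at 2 kg/ha. After growth in a glasshouse, growth inhibition was scored visually on day 21 on a 0 (<10%) to 5 (≥90% or complete withering) scale.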

[3] = test system: Digitaria ciliaris; test: Test for Herbicidal Effect in Soil Treatment (#3); conditions: 504 h, dose of 2 kg/ha, day 21, visual observation, read-out: growth inhibition effect
Text: 0: Growth inhibition effect is less than 10%. 1: Growth inhibition effect is equal to or greater than 10%, and less than 30%. 2; Growth inhibition effect is equal to or greater than 30%, and less than 50%. 3: Growth inhibition effect equal to or greater than 50%, and less than 70%. 4: Growth inhibition effect is equal to or greater than 70%, and less than 90%. 5: Growth inhibition effect is equal to or greater than 90%, or complete withering is achieved. (#3) Test for Herbicidal Effect in Soil Treatment: Styrol cups each having an opening diameter of 8 cm (about 52 cm^2) were respectively filled with soil (45 ml) which had been passed through a sieve (2 mm). Water (about 115 ml) was added. Thereafter, Digitaria ciliaris was seeded. Each of the compounds of the present invention was dissolved in acetone, and the obtained product was then diluted with water containing Tween 80°. Each of the resultant chemical solutions was dropped on the entire surface of an associated one of treatment sections, so that each section was treated with 1 ml of the respective chemical solution (a dose of 2 kg/ha). After the treatment, the plants were grown in a glasshouse. On day 21, a survey was conducted on the herbicidal activity by visual observation, and evaluation was made according to the following criteria. The herbicidal activity of the following comparative compounds A and B (the compounds disclosed Japanese Unexamined Patent Publication No. 2003-096059) were evaluated.

[4] = test system: Cyperus microiria; test: Test for Herbicidal Effect in Flooding Treatment (#1), CYMIC; conditions: flooding treatment at seeding, dose 2 kg/ha, visual observation on day 21
Procedure, shortened: as §1

[5] = test system: Echinochloa crus-galli (L.) P. Beauv. var. formosensis Ohwi; test: Test for Herbicidal Effect in Flooding Treatment (#1), ECHDG; conditions: flooding treatment at seeding, dose 2 kg/ha, visual observation on day 21
Procedure, shortened: as §1

[6] = test system: Monochoria vaginalis; test: Test for Herbicidal Effect in Flooding Treatment (#1), MONVA; conditions: flooding treatment at seeding, dose 2 kg/ha, visual observation on day 21
Procedure, shortened: as §1

SMILES	ECHDG (2-2.5L) #2 herbicidal effect (growth inhibition grade) [1]	SCIJU #1 herbicidal effect (growth inhibition grade) [2]	inhibition at 2000 g/ha [3]	CYMIC #1 herbicidal effect (growth inhibition grade) [4]	ECHDG #1 herbicidal effect (growth inhibition grade) [5]	MONVA #1 herbicidal effect (growth inhibition grade) [6]	inhibition at 200 g/ha [1]
CCOc1c(F)cccc1CS(=O)(=O)c1ncc(Cl)s1 [Compound 1C-9]	5 (Growth inhibition effect is equal to or greater than 90%, or complete withering is achieved)	5 (Growth inhibition effect is equal to or greater than 90%, or complete withering is achieved)	≥ 50%	5 (Growth inhibition effect is equal to or greater than 90%, or complete withering is achieved)	5 (Growth inhibition effect is equal to or greater than 90%, or complete withering is achieved)	–	–
CCOc1ccc(F)cc1CS(=O)(=O)c1ncc(Cl)s1 [Compound 1C-15]	5 (Growth inhibition effect is equal to or greater than 90%, or complete withering is achieved)	5 (Growth inhibition effect is equal to or greater than 90%, or complete withering is achieved)	≥ 50%	5 (Growth inhibition effect is equal to or greater than 90%, or complete withering is achieved)	5 (Growth inhibition effect is equal to or greater than 90%, or complete withering is achieved)	–	–
CCOc1cc(F)c(F)cc1CS(=O)(=O)c1ncc(Cl)s1 [Compound 1C-29]	5 (Growth inhibition effect is equal to or greater than 90%, or complete withering is achieved)	5 (Growth inhibition effect is equal to or greater than 90%, or complete withering is achieved)	≥ 50%	5 (Growth inhibition effect is equal to or greater than 90%, or complete withering is achieved)	5 (Growth inhibition effect is equal to or greater than 90%, or complete withering is achieved)	5 (Growth inhibition effect is equal to or greater than 90%, or complete withering is achieved)	–
O=S(=O)(Cc1ccccc1OC(F)F)c1ncc(Cl)s1 [Compound 1C-38]	5 (Growth inhibition effect is equal to or greater than 90%, or complete withering is achieved)	5 (Growth inhibition effect is equal to or greater than 90%, or complete withering is achieved)	≥ 90%	5 (Growth inhibition effect is equal to or greater than 90%, or complete withering is achieved)	5 (Growth inhibition effect is equal to or greater than 90%, or complete withering is achieved)	5 (Growth inhibition effect is equal to or greater than 90%, or complete withering is achieved)	≥ 90%
O=S(=O)(Cc1c(F)cccc1OC(F)F)c1ncc(Cl)s1 [Compound 1C-41, 5-chloro-2-{[2-(difluoromethoxy)-6-fluorophenyl][methanesulfonyl]}-1,3-thiazole]	5 (Growth inhibition effect is equal to or greater than 90%, or complete withering is achieved)	5 (Growth inhibition effect is equal to or greater than 90%, or complete withering is achieved)	≥ 90%	–	5 (Growth inhibition effect is equal to or greater than 90%, or complete withering is achieved)	5 (Growth inhibition effect is equal to or greater than 90%, or complete withering is achieved)	≥ 90%
CCOc1cc(F)c(CS(=O)(=O)c2ncc(Cl)s2)cc1F [Compound 1C-101, 5-chloro-2-[(2,5-difluoro-4-ethoxyphenyl)(methanesulfonyl)]-1,3-thiazole]	5 (Growth inhibition effect is equal to or greater than 90%, or complete withering is achieved)	5 (Growth inhibition effect is equal to or greater than 90%, or complete withering is achieved)	≥ 50%	5 (Growth inhibition effect is equal to or greater than 90%, or complete withering is achieved)	5 (Growth inhibition effect is equal to or greater than 90%, or complete withering is achieved)	5 (Growth inhibition effect is equal to or greater than 90%, or complete withering is achieved)	–
CCCOc1cc(Cl)c(CS(=O)(=O)c2ncc(Cl)s2)c(Cl)c1 [Compound 1C-110]	5 (Growth inhibition effect is equal to or greater than 90%, or complete withering is achieved)	5 (Growth inhibition effect is equal to or greater than 90%, or complete withering is achieved)	–	5 (Growth inhibition effect is equal to or greater than 90%, or complete withering is achieved)	5 (Growth inhibition effect is equal to or greater than 90%, or complete withering is achieved)	5 (Growth inhibition effect is equal to or greater than 90%, or complete withering is achieved)	–
O=S(=O)(Cc1c(F)cc(OCCC(F)(F)F)cc1F)c1ncc(Cl)s1 [Compound 1C-117]	4 (Growth inhibition effect is equal to or greater than 70%, and less than 90%)	5 (Growth inhibition effect is equal to or greater than 90%, or complete withering is achieved)	–	5 (Growth inhibition effect is equal to or greater than 90%, or complete withering is achieved)	5 (Growth inhibition effect is equal to or greater than 90%, or complete withering is achieved)	5 (Growth inhibition effect is equal to or greater than 90%, or complete withering is achieved)	–
COCOc1cc(Cl)c(CS(=O)(=O)c2ncc(Cl)s2)c(Cl)c1 [Compound 1C-119]	4 (Growth inhibition effect is equal to or greater than 70%, and less than 90%)	5 (Growth inhibition effect is equal to or greater than 90%, or complete withering is achieved)	–	5 (Growth inhibition effect is equal to or greater than 90%, or complete withering is achieved)	5 (Growth inhibition effect is equal to or greater than 90%, or complete withering is achieved)	5 (Growth inhibition effect is equal to or greater than 90%, or complete withering is achieved)	–
O=S(=O)(Cc1c(Cl)cccc1OCC(F)(F)F)c1ncc(Br)s1 [Compound 1C-161, 5-bromo-2-{[2-(2,2,2-trifluoroethoxy)-6-chlorophenyl][methanesulfonyl]}-1,3-thiazole]	5 (Growth inhibition effect is equal to or greater than 90%, or complete withering is achieved)	5 (Growth inhibition effect is equal to or greater than 90%, or complete withering is achieved)	≥ 50%	–	5 (Growth inhibition effect is equal to or greater than 90%, or complete withering is achieved)	–	–
O=S(=O)(Cc1ccccc1F)c1ncc(Cl)s1 [comparative compound A, reference compound]	–	–	30 to 50%	–	–	–	10 to 30%
O=S(=O)(Cc1ccccc1Cl)c1ncc(Cl)s1 [comparative compound B, reference compound]	–	–	30 to 50%	–	–	–	30 to 50%
